In US4405627A, “Diphenylpropylamino-pyridine compounds useful as medicines” (Italiana Schoum S.p.A., priority 1979, dated 1983):
Counter-ions that a name gives are not always drawn.

Key:
[1] = tested on: effects caused by Tremorin; experiment: Central and peripheral anticholinergic activity in mouse after administration of Tremorin; type: in vivo, mouse (Swiss male); settings: for Tremors / Miosis / Ptyalism: Tremorin 25 mg/kg i.p.; for Tremors: central activity; for Miosis / Ptyalism: peripheral activity; for antagonism of the effects of Tremorin / anticholinergic side effects: result in words, hydrochloride
Procedure: (§1) In order to evaluate the possible undesirable collateral systemic effects, tests of central and peripheral anticholinergic activity were carried out by using two animal species, mouse and rat.
In the first series of tests Swiss male mice averaging 25 g were used which were subdivided in three groups of 8 animals. […] The third, control group was given an equal volume of saline.
In watching the effects caused by Tremorin during the development of its action, beside the time for the appearance of tremors as an index of the central activity, further parameters such as ptyalism and miosis were contemplated as indexes of peripheral activity.

[2] = tested on: acetylcholine-induced chromodacryorrhea; experiment: Anticholinergic activity on chromodacryorrhea from acetylcholine; type: in vivo, rat (male Wistar); settings: for Chromodacryorrhea: acetylcholine 160 mcg s.c.; for effect on acetylcholine-induced chromodacryorrhea: 50 mg/kg, result in words
Procedure: as §1
Another series of experiments was carried out on male Wistar rats averaging 150 g in order to point out the anticholinergic activity at the glandular level.
A first control group consisting of six animals was subcutaneously injected with 160 mcg of acetylcholine.

[3] = tested on: rabbit ileum; experiment: Spontaneous motility in vitro of rabbit ileum; set-up: species or system rabbit (New Zealand male); settings: Oryctolagus cuniculus; 50% reduction of amplitude of the basal contraction; Tyrode, 37° C.; read-out: CI50 (the source's name)
Procedure: The spontaneous motility of the preparations was measured by a isotonic transducer connected with a microdynamometer. Each preparation was previously left dipped for about one hour in the solution up to reach the osmotic equilibrium.
After this time the single compounds were poured in the bath in gradual doses up to notice the quite total disappearance of spontaneous activity in the organ. For sake of comparison parallel tests with papaverine were carried out.

[4] = tested on: rabbit ileum; experiment: BaCl2-induced contraction on isolated rabbit ileum; settings: Oryctolagus cuniculus; 50% reduction of the BaCl2-induced contraction; BaCl2 50 mcg/ml; read-out: CI50 (the source's name)
Text: The activity of same compounds in antagonizing the spasm as caused by BaCl2 introduced in the bath at a concentration of 50 mcg/ml one minute before each test was studied. Also for this preparation a comparison with papaverine was at last carried out.

[5] = tested on: guinea pig ileum; experiment: Acetylcholine-induced contraction on guinea pig ileum in vitro; set-up: species or system guinea pig (Whitish female); settings: for IC50: Cavia porcellus, acetylcholine 0.1 mcg/ml, Tyrode, 37° C., 3 minutes before spasmogen, read-out: CI50 (the source's name); for acetylcholine-induced contraction on guinea pig ileum: result in words
Procedure: (§2) On the guinea pig ileum, which has a minimum intrinsic motility but a remarkable sensibility to agents causing a contracture or a relaxation of the intestinal smooth muscular system, it was possible to further evaluate the spasmolytic activity of the examined substances. As spasmogenic agents acetylcholine and BaCl2 were used which were respectively added to the bath at final concentrations of 0.1 mcg/ml and 50 mcg/ml.
(§3) Ten preparations of guinea pig ileum for each compound were prepared, yet maintaining the same dose range which was used on rabbit ileum.
(§4) The contractions were measured by means of an isotonic transducer connected with a microdynamometer. Each preparation was left dipped for about 30 minutes up to reach the equilibrium.
(§5) After this time, the single doses of each substance to be examined were introduced three minutes before the spasmogenic substance which was contacted with the preparation for 1 minute. Before the subsequent dose of drug was introduced, the tested organ was allowed to recover the basal conditions and this was ascertained by using the only spasmogenic substance. The process was repeated for all the other concentrations. Afterwards the comparison with the reference spasmolytic substance having a known activity, namely papaverine, was carried out yet working in the same conditions and according to the same procedure.

[6] = tested on: guinea pig ileum; experiment: BaCl2-induced contraction on guinea pig ileum in vitro; set-up: species or system guinea pig (Whitish female); settings: for IC50: Cavia porcellus, BaCl2 50 mcg/ml, Tyrode, 37° C., 3 minutes before spasmogen, read-out: CI50 (the source's name); for BaCl2-induced contraction on guinea pig ileum: result in words
Procedure: as §2, §3, §4, §5

[7] = tested on: small intestine; experiment: Effect on the intestinal progress of opaque meal in rat; type: in vivo, rat (Male Wistar); settings: for Progress %: 40 minutes after opaque meal, mean of ten ± standard error, controls 81.76 ± 2.33
Procedure: Male Wistar rats weighing 150-180 g were employed subdivided in groups of ten subjects, which were maintained fasting for 18 hours before the test.
Two administration ways were considered: oral and intraperitoneal.
In the first set of tests to every group of animals each compound was orally administered in the form of an aqueous solution or suspension in gum-arabic (10% in water) 40 minutes before an opaque meal consisting of a suspension of 5% vegetable charcoal in gum-arabic (20% in water).
The animals were killed by cranial injury 40 minutes after the oral administration of the opaque meal and the small intestine was drawn. To the control group an equal volume of saline was administered in the same administration way. The second set of tests was carried out by administering intraperitoneally the compounds 30 minutes before the opaque meal. The animals were killed 40 minutes after the swallowing of the alimentary bolus and the small intestine was drawn; to the control group an equal volume of saline was injected. The total length of small intestine and the progress of opaque meal were measured in each killed animal.

[8] = Acute toxicity (DL50) in mouse; type: in vivo; settings: mouse, in vivo
Procedure: (§6) The determination of the lethal dose to 50% of the animals which were treated with the examined substances was obtained by using male Swiss mice averaging 22 g and by considering two administration ways: oral and intraperitoneal.
(§7) Groups of six animals of each dose were prepared which were kept under observation for 7 days and fasting since the evening before the experience.
(§8) During the observation period possible and clear changes in activity and behaviour were controlled by using the Irwin test: a behavioural outline of the treated animals was obtained with respect to other subjects which received reference drugs.
(§9) The calculation of acute toxicity was carried out by using the Litchfield and Wilcoxon procedure (J. Pharmac. Exp. Ther. 96, 99, 1949).
(§10) The acute toxicity values in mg/kg are given in table 9 in the form of average values with the relevant fiducial limits in comparison with papaverine.

[9] = tested on: carbachol-stimulated intestinal motility; experiment: Effect on intestinal progress in rats after excitation with carbachol; type: in vivo, rat; settings: 40 mg/kg i.p.; carbachol 30 mcg/kg i.p.; mean of ten ± standard errors; non-stimulated controls 55.7 ± 2.23, stimulated controls 77.95 ± 1.72
Procedure: Subsequently a further series of tests were carried out in order to evaluate the capability of some examined compounds in hindering the stimulating action on intestinal motility of a dose of carbachol at the concentration of 30 mcg/kg when intraperitoneally administered. Carbachol or carbamylcholine chloride is a known substance endowed with parasympathomimetic action.
The control group was given an equal volume of saline.
The survey of the data as given in tables 6 was carried out as previously described by considering the percent intestinal progress of opaque meal with respect to the total length of small intestine.

[10] = tested on: mouse; experiment: Acute toxicity (DL50) in mouse; type: in vivo; settings: result in words; orally and intraperitoneally
Procedure: as §6, §7, §8, §9, §10

[11] = Solubility; type: physicochemical; settings: saline; read-out: maximum dose consistent with the total solubility in saline
[12] = po, os, average values with fiducial limits, 7 days observation
[13] = ip, average values with fiducial limits, 7 days observation

Row | IC50 [3] [µM] | IC50 [5] [µM] | SMILES | IC50 [4] [µM] | IC50 [6] [µM] | BaCl2-induced contraction on guinea pig ileum [6] | acetylcholine-induced contraction on guinea pig ileum [5] | LD50 at 168 h [8, 12] [mg/kg] | further results
1 | 16 | 12 | CC[n+]1cccc(NCCC(c2ccccc2)c2ccccc2)c1 [3-(3',3'-diphenylpropyl-1'-amino)-1-ethylpyridinium iodide] | 35 |  |  |  |  | 
2 | 18 | 6.2 | CC[n+]1ccccc1NCCC(c1ccccc1)c1ccccc1 [2-(3',3'-diphenylpropyl-1'-amino)-1-ethylpyridinium iodide] |  | 3.4 |  |  |  | 
3 | 24 | 10 | CC[n+]1ccc(NCCC(c2ccccc2)c2ccccc2)cc1 [4-(3',3'-diphenylpropyl-1'-amino)-1-ethyl-pyridinium iodide] | 22 | 8.9 |  |  |  | 
4 | 18 | 16 | C[n+]1ccc(NCCC(c2ccccc2)c2ccccc2)cc1 [4-(3',3'-diphenylpropyl-1'-amino)-1-methyl-pyridinium iodide] | 14 |  |  |  |  | 
5 | 15 | 17 | C[n+]1cccc(NCCC(c2ccccc2)c2ccccc2)c1 [3-(3',3'-diphenylpropyl-1'-amino)-1-methylpyridinium iodide] | 14 |  |  |  |  | 

The next lines start with the molecule.

Row | SMILES | IC50 [3] [µM] | IC50 [5] [µM] | IC50 [4] [µM] | IC50 [6] [µM] | BaCl2-induced contraction on guinea pig ileum [6] | acetylcholine-induced contraction on guinea pig ileum [5] | LD50 at 168 h [8, 12] [mg/kg] | further results
6 | CN1[C@@H]2CC[C@H]1C[C@@H](OC(=O)C(CO)c1ccccc1)C2 (stereo partly shown) [Atropine sulfate, reference compound] |  |  |  |  |  |  |  | Tremors ([1]; 60 mg/kg i.p.): -; Miosis ([1]; 60 mg/kg i.p.): -; Ptyalism ([1]; 60 mg/kg i.p.): -; Chromodacryorrhea ([2]; 1 mg/kg i.p.): -
7 | C[n+]1ccccc1NCCC(c1ccccc1)c1ccccc1 [2-(3',3'-diphenylpropyl-1'-amino)-1-methylpyridinium iodide] | 26 | 4.6 | 10 | 4.3 | more active than papaverine | also effective on the acetylcholine-induced contraction | 350 | Progress % ([7]; 100 mg/kg os): 73.63 ± 4.33%
8 | COc1ccc(Cc2nccc3cc(OC)c(OC)cc23)cc1OC [Papaverine hydrochloride, reference compound] | 39 | 8.5 | 56 | 9.2 |  |  | 315 | Progress % ([7]; 200 mg/kg os): 70.2 ± 2.61%; LD50 at 168 h [8, 13]: 66 mg/kg
9 | c1ccc(C(CCNc2ccccn2)c2ccccc2)cc1 [N-(2'-pyridyl)-3,3-diphenylpropylamine hydrochloride] | 13 | 11 | 14 | 5.6 | more active than papaverine | also effective on the acetylcholine-induced contraction |  | Progress % ([7]; 20 mg/kg i.p.): 62.10 ± 2.54%; Progress % ([7]; 50 mg/kg os): 67.65 ± 2.54%; reducing the progress of an opaque meal ([7]; oral and intraperitoneal, result in words): the most active compound in reducing the progress of an opaque meal in both of the considered administration ways; Progress % [9]: 42.25 ± 3.34%; Tremors ([1]; 50 mg/kg i.p.): +; Miosis ([1]; 50 mg/kg i.p.): +; Ptyalism ([1]; 50 mg/kg i.p.): +; Tremors ([1]; 100 mg/kg i.p.): +; Miosis ([1]; 100 mg/kg i.p.): +; Ptyalism ([1]; 100 mg/kg i.p.): +; antagonism of the effects of Tremorin / anticholinergic side effects ([1]; listed as N-(2'-pyridyl)-3,3-diphenyl-propylamine hydrochloride): does not antagonize the ffects of Tremorin neither at a central level nor at a peripheral level; antagonism of the effects of Tremorin / anticholinergic side effects ([1]; listed as N-(2'-pyridyl)-3,3-diphenylpropylamine hydrochloride): does not show anticholinergic side effects at a central level also at high doses; Chromodacryorrhea ([2]; 50 mg/kg i.p.): +; effect on acetylcholine-induced chromodacryorrhea [2]: do not modify the acetylcholine-induced chromodacryorrhea; LD50 at 168 h ([8]; ip): 360 mg/kg; LD50 at 168 h ([8]; po): > 1500 mg/kg; acute toxicity [10]: The less toxic compound; solubility [11]: 1000 µg/mL
10 | c1ccc(C(CCNc2cccnc2)c2ccccc2)cc1 [N-(3'-pyridyl)-3,3-diphenylpropylamine hydrochloride] | 12 | 10 | 28 | 6.7 | more active than papaverine | also effective on the acetylcholine-induced contraction | > 800 | Progress % ([7]; 20 mg/kg i.p.): 75.06 ± 5.94%; Progress % ([7]; 100 mg/kg os): 79.10 ± 5.3%; Progress % [9]: 49.85 ± 3.34%; Tremors ([1]; 50 mg/kg i.p.): -; Miosis ([1]; 50 mg/kg i.p.): +; Ptyalism ([1]; 50 mg/kg i.p.): +; Tremors ([1]; 100 mg/kg i.p.): -; Miosis ([1]; 100 mg/kg i.p.): -; Ptyalism ([1]; 100 mg/kg i.p.): -; Chromodacryorrhea ([2]; 50 mg/kg i.p.): +; effect on acetylcholine-induced chromodacryorrhea [2]: do not modify the acetylcholine-induced chromodacryorrhea; LD50 at 168 h [8, 13]: 340 mg/kg; solubility [11]: 1000 µg/mL
